For series [1], the system named is Hepatocyte. Briefly: Intrinsic clearance in human hepatocytes assessed per million cells. The format is ADME, cell-based.
In series [2] the test system is Liver microsome. The experiment in a line: Intrinsic clearance in rat liver microsomes. The format is ADME. (Liver microsomes are a subcellular fraction often used to study metabolism.)
Series [3] can be described thus: Intrinsic clearance in human liver microsomes. It is filed as ADME. The settings on record: read-out: CLH.
The nature of series [4]: Lipophilicity, log D of the compound. The format is physicochemical. The following applies: octanol/water.
Series [5] has as its target Transient receptor potential cation channel subfamily M member 8 (Homo sapiens, UniProt Q7Z2W7). Briefly: Antagonist activity against human recombinant TRPM8 expressed in CHO T-rex cells assessed as inhibition of WS12-induced calcium response pre-incubated for 20 mins before WS12 addition. It is filed as cell-based.
Series [6] has as its target T1, CYP2C8 (Homo sapiens, UniProt P10632).
T1 sequence (P10632 whole entry): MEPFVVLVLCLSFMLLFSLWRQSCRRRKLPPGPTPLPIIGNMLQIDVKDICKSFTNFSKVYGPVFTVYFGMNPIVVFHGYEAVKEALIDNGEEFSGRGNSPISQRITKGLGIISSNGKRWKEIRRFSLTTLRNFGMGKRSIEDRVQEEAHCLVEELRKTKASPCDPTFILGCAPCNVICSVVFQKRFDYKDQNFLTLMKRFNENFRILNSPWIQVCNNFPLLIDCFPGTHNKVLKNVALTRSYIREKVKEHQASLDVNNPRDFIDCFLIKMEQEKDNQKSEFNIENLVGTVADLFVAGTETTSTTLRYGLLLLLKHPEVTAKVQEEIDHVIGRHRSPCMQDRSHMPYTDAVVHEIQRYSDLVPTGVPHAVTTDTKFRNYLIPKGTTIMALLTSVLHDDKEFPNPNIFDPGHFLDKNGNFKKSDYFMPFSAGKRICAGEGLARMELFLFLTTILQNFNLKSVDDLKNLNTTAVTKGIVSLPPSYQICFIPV
Briefly: Inhibition of CYP2C8 (unknown origin) at 3 uM. The format is ADME.

Series [7] addresses CYP3A4 (Homo sapiens, UniProt P08684). Briefly: Inhibition of CYP3A4 (unknown origin) at 3 uM. The format is ADME.
For series [8], the target named is CYP2C9 (Homo sapiens, UniProt P11712). Briefly: Inhibition of CYP2C9 (unknown origin) at 3 uM. The format is ADME.
Sequence of CYP2C9 (P11712 whole entry): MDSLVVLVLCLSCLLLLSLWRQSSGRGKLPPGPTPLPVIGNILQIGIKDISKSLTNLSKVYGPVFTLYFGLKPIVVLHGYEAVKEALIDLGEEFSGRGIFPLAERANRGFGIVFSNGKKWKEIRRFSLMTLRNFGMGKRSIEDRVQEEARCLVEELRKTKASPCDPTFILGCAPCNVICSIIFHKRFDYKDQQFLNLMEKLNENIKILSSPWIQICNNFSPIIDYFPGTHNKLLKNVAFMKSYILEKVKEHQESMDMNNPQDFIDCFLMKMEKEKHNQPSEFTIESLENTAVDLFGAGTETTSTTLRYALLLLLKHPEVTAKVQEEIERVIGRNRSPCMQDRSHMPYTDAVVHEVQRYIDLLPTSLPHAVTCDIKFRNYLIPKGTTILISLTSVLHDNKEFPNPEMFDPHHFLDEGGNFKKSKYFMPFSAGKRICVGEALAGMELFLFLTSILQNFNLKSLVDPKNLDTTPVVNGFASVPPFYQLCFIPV
The target in series [9] is CYP2D6 (Homo sapiens, UniProt P10635). The experiment in a line: Inhibition of CYP2D6 (unknown origin) at 3 uM. The format is ADME.
Sequence of CYP2D6 (P10635 whole entry): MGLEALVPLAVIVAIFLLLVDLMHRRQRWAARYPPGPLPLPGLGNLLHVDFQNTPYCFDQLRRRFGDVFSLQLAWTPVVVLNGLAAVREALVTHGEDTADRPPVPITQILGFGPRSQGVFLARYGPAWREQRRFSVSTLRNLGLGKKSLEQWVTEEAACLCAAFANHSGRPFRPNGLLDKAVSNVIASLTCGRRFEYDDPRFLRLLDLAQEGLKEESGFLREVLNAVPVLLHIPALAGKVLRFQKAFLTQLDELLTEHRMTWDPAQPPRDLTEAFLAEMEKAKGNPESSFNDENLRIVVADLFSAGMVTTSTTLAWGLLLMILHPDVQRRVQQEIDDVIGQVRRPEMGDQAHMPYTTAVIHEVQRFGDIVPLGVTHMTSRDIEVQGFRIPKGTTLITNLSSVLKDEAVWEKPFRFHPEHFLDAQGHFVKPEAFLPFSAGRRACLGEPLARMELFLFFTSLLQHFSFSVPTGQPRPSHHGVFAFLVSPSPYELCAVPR
Series [10] deals with T2, CYP1A2 (Homo sapiens, UniProt P05177).
T2 sequence (P05177 whole entry): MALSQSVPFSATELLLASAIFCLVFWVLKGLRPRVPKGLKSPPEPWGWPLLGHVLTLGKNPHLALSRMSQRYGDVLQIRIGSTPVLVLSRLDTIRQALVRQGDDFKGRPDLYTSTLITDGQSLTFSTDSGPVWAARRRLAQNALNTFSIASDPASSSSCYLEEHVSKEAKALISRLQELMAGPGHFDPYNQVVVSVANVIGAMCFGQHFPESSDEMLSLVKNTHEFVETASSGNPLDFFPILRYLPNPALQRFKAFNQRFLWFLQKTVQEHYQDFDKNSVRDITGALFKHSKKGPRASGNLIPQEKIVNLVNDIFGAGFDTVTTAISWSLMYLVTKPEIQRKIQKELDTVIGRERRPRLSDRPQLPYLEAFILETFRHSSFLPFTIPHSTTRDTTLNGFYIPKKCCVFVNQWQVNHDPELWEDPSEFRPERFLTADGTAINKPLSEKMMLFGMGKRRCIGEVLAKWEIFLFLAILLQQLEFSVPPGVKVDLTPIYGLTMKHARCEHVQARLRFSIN
The experiment in a line: Inhibition of CYP1A2 (unknown origin) at 3 uM. It is filed as ADME.

Series [11] concerns the target Voltage-gated inwardly rectifying potassium channel KCNH2 (Homo sapiens, UniProt Q12809). The experiment in a line: Inhibition of dofetilide binding to human ERG.

Data on 29 compounds can be found in ChEMBL document CHEMBL3576831, “Discovery of a Selective TRPM8 Antagonist with Clinical Efficacy in Cold-Related Pain” (ACS Med Chem Lett, 2015).

The term logD denotes lipophilicity at a set pH, counting ionised and neutral species. Usually IC50 stands for the concentration needed to halve the response being measured. Usually inhibition stands for the percentage by which the read-out fell short of the control. As usually defined, the Ki is a dissociation constant, usually derived from enzyme kinetics or from competition with a known ligand. Read a low Ki as tighter binding.

SMILES strings stand for the structures.

Sequence of CYP3A4 (P08684 whole entry): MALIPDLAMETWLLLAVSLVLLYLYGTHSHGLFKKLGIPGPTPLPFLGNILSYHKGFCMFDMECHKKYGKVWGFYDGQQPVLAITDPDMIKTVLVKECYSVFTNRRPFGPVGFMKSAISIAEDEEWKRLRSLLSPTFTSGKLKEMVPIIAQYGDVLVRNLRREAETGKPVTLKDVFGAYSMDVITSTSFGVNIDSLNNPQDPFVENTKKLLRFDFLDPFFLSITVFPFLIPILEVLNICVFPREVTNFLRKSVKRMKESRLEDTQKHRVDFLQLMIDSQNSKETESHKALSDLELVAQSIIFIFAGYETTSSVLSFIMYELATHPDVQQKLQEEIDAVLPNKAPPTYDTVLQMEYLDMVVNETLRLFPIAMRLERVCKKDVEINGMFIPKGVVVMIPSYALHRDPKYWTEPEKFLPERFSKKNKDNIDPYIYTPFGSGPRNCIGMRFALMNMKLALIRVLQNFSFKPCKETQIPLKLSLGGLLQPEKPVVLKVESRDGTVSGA
Sequence of Voltage-gated inwardly rectifying potassium channel KCNH2 (Q12809 whole entry): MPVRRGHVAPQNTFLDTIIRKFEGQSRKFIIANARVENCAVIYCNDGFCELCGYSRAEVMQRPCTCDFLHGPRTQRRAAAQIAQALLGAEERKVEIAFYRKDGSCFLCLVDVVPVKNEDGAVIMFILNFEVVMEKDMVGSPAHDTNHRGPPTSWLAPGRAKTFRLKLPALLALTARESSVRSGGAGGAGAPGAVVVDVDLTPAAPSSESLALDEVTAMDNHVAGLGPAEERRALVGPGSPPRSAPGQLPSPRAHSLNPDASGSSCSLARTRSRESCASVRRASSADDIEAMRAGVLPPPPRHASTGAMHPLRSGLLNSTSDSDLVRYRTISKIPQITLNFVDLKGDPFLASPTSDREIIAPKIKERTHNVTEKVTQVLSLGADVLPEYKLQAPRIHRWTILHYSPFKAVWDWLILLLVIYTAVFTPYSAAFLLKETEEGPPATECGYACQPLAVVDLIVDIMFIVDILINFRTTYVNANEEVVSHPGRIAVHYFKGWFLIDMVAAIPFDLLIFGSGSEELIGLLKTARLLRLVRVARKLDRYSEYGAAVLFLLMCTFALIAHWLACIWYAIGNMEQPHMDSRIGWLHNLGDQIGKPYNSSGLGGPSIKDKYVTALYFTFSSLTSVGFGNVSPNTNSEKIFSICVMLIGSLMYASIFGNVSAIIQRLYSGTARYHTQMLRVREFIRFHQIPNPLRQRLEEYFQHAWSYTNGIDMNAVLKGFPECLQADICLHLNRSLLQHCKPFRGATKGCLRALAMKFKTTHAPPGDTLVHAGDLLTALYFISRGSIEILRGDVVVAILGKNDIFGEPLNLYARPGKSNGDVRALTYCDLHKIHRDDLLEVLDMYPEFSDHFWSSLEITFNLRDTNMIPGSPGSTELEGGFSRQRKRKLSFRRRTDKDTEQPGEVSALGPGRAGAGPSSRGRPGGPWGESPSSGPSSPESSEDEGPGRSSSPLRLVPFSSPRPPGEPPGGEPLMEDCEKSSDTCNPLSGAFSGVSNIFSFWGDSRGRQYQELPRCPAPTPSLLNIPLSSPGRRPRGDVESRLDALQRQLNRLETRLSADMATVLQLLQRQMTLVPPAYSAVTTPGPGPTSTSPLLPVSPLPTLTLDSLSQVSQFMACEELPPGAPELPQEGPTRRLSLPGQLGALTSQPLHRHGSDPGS
Sequence of Transient receptor potential cation channel subfamily M member 8 (Q7Z2W7 whole entry): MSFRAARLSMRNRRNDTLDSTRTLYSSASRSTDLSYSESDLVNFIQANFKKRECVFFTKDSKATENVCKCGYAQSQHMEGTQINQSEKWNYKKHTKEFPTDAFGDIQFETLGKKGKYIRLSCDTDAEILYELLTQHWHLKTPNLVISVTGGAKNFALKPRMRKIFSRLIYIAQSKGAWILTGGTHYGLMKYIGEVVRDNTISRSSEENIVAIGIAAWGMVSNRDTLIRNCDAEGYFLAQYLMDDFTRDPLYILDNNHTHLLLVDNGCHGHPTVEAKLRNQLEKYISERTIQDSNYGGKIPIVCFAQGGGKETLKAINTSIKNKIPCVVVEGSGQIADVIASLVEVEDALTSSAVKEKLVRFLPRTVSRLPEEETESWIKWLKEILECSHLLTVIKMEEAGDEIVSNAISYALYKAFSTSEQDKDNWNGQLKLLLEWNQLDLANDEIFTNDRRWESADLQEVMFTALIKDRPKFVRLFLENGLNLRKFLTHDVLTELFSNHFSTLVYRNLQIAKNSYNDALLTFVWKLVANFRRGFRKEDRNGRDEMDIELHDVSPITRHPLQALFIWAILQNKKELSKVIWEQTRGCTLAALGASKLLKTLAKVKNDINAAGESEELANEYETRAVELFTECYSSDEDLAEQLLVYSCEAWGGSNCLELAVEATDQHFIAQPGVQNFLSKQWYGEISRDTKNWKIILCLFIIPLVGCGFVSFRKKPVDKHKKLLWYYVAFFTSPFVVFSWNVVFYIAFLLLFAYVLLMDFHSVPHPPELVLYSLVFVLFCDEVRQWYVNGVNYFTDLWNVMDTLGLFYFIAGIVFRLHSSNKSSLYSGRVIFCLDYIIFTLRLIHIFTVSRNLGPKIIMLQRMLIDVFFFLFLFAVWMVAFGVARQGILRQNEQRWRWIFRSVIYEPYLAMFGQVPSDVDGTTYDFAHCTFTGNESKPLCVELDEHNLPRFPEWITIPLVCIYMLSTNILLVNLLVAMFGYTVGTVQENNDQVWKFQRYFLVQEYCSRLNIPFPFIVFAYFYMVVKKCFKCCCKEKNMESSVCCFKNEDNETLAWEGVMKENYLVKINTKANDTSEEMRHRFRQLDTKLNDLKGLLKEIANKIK

In the case of `C[C@H](c1ccc(F)cc1F)N(Cc1cccc(C(=O)O)c1)C(=O)c1cc2ccccn2n1`, in series [1], the hepatocyte intrinsic clearance was 31 µL/min/million cells. Also, the figures for the microsomal CLint in series [2] and in series [3] were 85 µL/min/mg and 23 µL/min/mg, respectively. Besides, in series [4], the logD was determined as 0.9. Besides, the IC50 in [5] was determined as 234 nM.

Take `C[C@H](c1ccc(F)cc1)N(Cc1cccc(C(=O)O)c1)C(=O)c1cc2ccccc2s1`: the IC50 in series [5] stood at 145 nM.

In the case of `CC[C@H](c1ccc(F)cc1F)N(Cc1cccc(C(=O)O)c1)C(=O)c1cc2ccccn2n1`, in series [1], the hepatocyte intrinsic clearance worked out at 48 µL/min/million cells. For the same compound, the microsomal CLint in series [2] amounted to 41 µL/min/mg; in [3], 28 µL/min/mg. Moreover, the inhibition at 3 µM in [6], in [7], in series [8], in [9] and in series [10] was 0% throughout. The log distribution coefficient (logD) in series [4] amounted to 1.2. Moreover, the half-maximal inhibitory concentration (IC50) in series [5] was found to be 123 nM.

Turning to `C[C@H](c1ccc(F)cc1)N(Cc1cccc(C(=O)O)c1)C(=O)c1ccc(Oc2ccccc2)cc1`, the 50% inhibitory concentration (IC50) in [5] was over 6170 nM.

`C[C@H](c1ccc(F)cc1)N(Cc1cc(C(=O)O)ccc1F)C(=O)c1cnc2ccccc2c1`: the IC50 in series [5] is 446 nM.

In series [1], `C[C@H](c1ccc(F)cc1)N(Cc1cccc(C(=O)O)c1)C(=O)c1cc2ccccn2n1` gave a hepatocyte intrinsic clearance of 23 µL/min/million cells. For the same compound, the microsomal CLint in [2] came out at 325 µL/min/mg; in series [3], 42 µL/min/mg. This compound showed a logD in [4] of 0.9. Further, the IC50 in series [5] came to 94 nM. For the same compound, the Ki in series [11] is over 9180 nM.

Compound `C[C@H](c1ccc(F)cc1)N(Cc1cccc(C(=O)O)c1)C(=O)c1cn2ccccc2n1` gave a microsomal CLint in series [2] of 113 µL/min/mg. In series [4], this compound came in with a log distribution coefficient (logD) of 0.6. The IC50 in series [5] is 307 nM. Besides, in [11], the Ki was over 9180 nM.

Turning to `O=C(O)c1cccc(CN(Cc2ccc(F)cc2)C(=O)c2cnc3ccccc3c2)c1`, in series [5], the IC50 is over 9360 nM.

As for `C[C@H](c1ccc(F)cc1)N(Cc1ccc(F)c(C(=O)O)c1)C(=O)c1cnc2ccccc2c1`, the IC50 in [5] amounted to 3280 nM.

Turning to `O=C(O)c1cccc(CN(C(=O)c2cnc3ccccc3c2)[C@H](CO)c2ccccc2)c1`, the IC50 in series [5] is over 6860 nM.

`C[C@H](c1ccc(F)cc1)N(Cc1cccc(-c2nn[nH]n2)c1)C(=O)c1cnc2ccccc2c1`: the half-maximal inhibitory concentration (IC50) in series [5] turned out to be 1610 nM.

On to `CC(c1ccc(F)cc1)N(Cc1cccc(C(=O)O)c1)C(=O)c1ccc2c(c1)CCO2` (racemic), for which the IC50 in series [5] came out at 3620 nM.

As to `C[C@H](c1ccc(F)cc1)N(Cc1cccc(C(=O)O)c1)C(=O)c1cc2cc[nH]c2cn1`, the IC50 in [5] stood at 951 nM.

`CC[C@H](c1ccc(F)cc1)N(Cc1cccc(C(=O)O)c1)C(=O)c1cnc2ccccc2c1` registered a hepatocyte intrinsic clearance in [1] of 28 µL/min/million cells. Further, the microsomal CLint in series [2] is under 14 µL/min/mg; in series [3] it was under 8 µL/min/mg. The same compound had a logD in series [4] of 1.3. Further, in series [5], the half-inhibitory concentration (IC50) was 202 nM. In series [11], the inhibition constant Ki is over 15200 nM.

As to `CC[C@H](c1ccc(C)o1)N(Cc1cccc(C(=O)O)c1)C(=O)c1cnc2ccccc2c1`, the IC50 in series [5] is 328 nM.

As to `C[C@H](c1ccc(F)cc1F)N(Cc1cccc(C(=O)O)c1)C(=O)c1cc2ccccc2cn1`, in series [1], the hepatocyte intrinsic clearance was under 2 µL/min/million cells. Moreover, the microsomal CLint in series [2] was 31 µL/min/mg; in [3] it was 11 µL/min/mg. Further, the inhibition at 3 µM in series [6], in series [7], in series [8], in [9] and in series [10] was 0% throughout. In [4], this compound yielded a logD of 1.1. Moreover, the 50% inhibitory concentration (IC50) in series [5] amounted to 60 nM.

As to `CC(C)(c1ccc(F)cc1)N(Cc1cccc(C(=O)O)c1)C(=O)c1cnc2ccccc2c1`, the IC50 in [5] is over 10000 nM.

Turning to `Cc1ccc(CN(C(=O)c2cnc3ccccc3c2)[C@H](C)c2ccc(F)cc2)cc1C(=O)O`, the IC50 in [5] was over 7820 nM.

`CC(c1ccc(F)cc1)N(Cc1cccc(C(=O)O)c1)C(=O)C1Cc2ccccc2C1` (racemic): the IC50 in [5] was over 5000 nM.

With `C[C@H](c1ccc(F)cc1F)N(Cc1cccc(C(=O)O)c1)C(=O)c1cnc2ccccc2c1`, in series [5], the 50% inhibitory concentration (IC50) is 288 nM.

Consider `COc1ccc(C(C)N(Cc2cccc(C(=O)O)c2)C(=O)c2cnc3ccccc3c2)cc1` (centres undefined), for which the IC50 in series [5] is 6100 nM.

`C[C@H](c1ccc(F)cc1)N(Cc1cccc(C(=O)O)c1)C(=O)Cc1cccc(Cl)c1`: the IC50 in series [5] is over 10000 nM.

`C[C@H](c1ccc(F)cc1)N(Cc1cccc(C(=O)O)n1)C(=O)c1cnc2ccccc2c1`: the IC50 in series [5] turned out to be 1160 nM.

For `C[C@H](c1cccc(Cl)c1)N(Cc1cccc(C(=O)O)c1)C(=O)c1cnc2ccccc2c1`, in series [1], the hepatocyte intrinsic clearance was determined as 45 µL/min/million cells. Moreover, the microsomal CLint in series [2] stood at 102 µL/min/mg; in [3], 10 µL/min/mg. Besides, the inhibition at 3 µM in [6], in [7], in series [8], in [9] and in series [10] was 0% in each case. Further, the logD in [4] is 1.5. The half-maximal inhibitory concentration (IC50) in series [5] is 62 nM.

For `C[C@H](c1ccc(F)cc1)N(Cc1cccc(C(=O)O)c1)C(=O)c1cccc(-c2ccccc2)c1`, in [5], the IC50 came out at 837 nM.

For the compound `C[C@H](c1ccc(F)cc1)N(Cc1cccc(C(=O)O)c1)C(=O)c1cc2ccccc2nn1`, the microsomal CLint in series [2] was 76 µL/min/mg; in [3] it was under 8 µL/min/mg. Also, in series [5], the IC50 amounted to 340 nM.

As to `C[C@H](c1ccc(F)cc1)N(Cc1cccc(CC(=O)O)c1)C(=O)c1cnc2ccccc2c1`, the IC50 in series [5] is over 3250 nM.

`C[C@H](c1ccc(F)cc1)N(Cc1cccc(C(=O)O)c1)C(=O)c1cc2ccccc2cn1` displayed a hepatocyte intrinsic clearance in [1] of 21 µL/min/million cells. The microsomal CLint stood at 166 µL/min/mg in [2] and 16 µL/min/mg in [3]. Besides, the logD in [4] was 1.1. Besides, the IC50 in series [5] was determined as 90 nM. Besides, the Ki in series [11] was over 9180 nM.

Regarding `C[C@H](c1ccc(F)cc1F)N(Cc1cccc(C(=O)O)n1)C(=O)c1cc2ccccc2cn1`, in series [1], the hepatocyte intrinsic clearance was under 2.2 µL/min/million cells. Also, the microsomal CLint in series [2] came out at 31 µL/min/mg; in [3] it was 11 µL/min/mg. The inhibition at 3 µM in [6], in [7], in [8], in series [9] and in series [10] was 0% in each case. In series [4], the logD was determined as 0.4. In addition, the half-inhibitory concentration (IC50) in series [5] worked out at 190 nM.
